How the values were obtained:
Assay type in all cases: cell-based
BRAF V600E = biological target: T1, BRAF V600E (Homo sapiens, UniProt P15056, V600E); experiment: BRAF HiBiT degradation assay, C-terminal HiBiT-tagged BRAF V600E A375 cells (clone 1F10), Nano-Glo HiBiT Lytic assay; details: for Dmax: A-375
T1 construct: endogenous C-terminal HiBiT fusion tag on BRAF V600E allele; endogenous in cells; host or cells: A375 clone 1F10 (CRISPR-Cas9 knock-in of the HiBiT tag; parental A375 from ATCC)
Outline: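 Luminescence from the Nano-Glo HiBiT lytic read-out gave % BRAF V600E remaining versus DMSO-treated tagged cells, with untagged A375 as background. Clone 1F10 cells (10,000/well, 24 h pre-culture) received compound at 1 μM–0.01 nM in half-log steps, 0.2% DMSO; curve fits gave DC50 at Y=50, plus observed Dmax.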

BRAF G466V = biological target: T2, BRAF G466V (Homo sapiens, UniProt P15056, G466V); experiment: BRAF HiBiT degradation assay, C-terminal HiBiT-tagged BRAF G466V overexpressed in HCT-116 BRAF−/− cells (clone 8), Nano-Glo HiBiT Lytic assay
T2 construct: Horizon Discovery (HCT-116 BRAF−/− cells); host or cells: HCT-116 BRAF−/− cells, clone 8, lentiviral transduction
Outline: (§1)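 Degradation was read by Nano-Glo HiBiT lytic luminescence, normalised to DMSO-treated tagged cells with wildtype HCT-116 as background. Test cells were lentiviral clones of HCT-116 BRAF−/− carrying HiBiT-tagged mutants in RPMI/10% FBS, given compound at 0.01 nM–1 μM in duplicate. Outputs are the curve-fitted concentration giving 50% degradation and the maximal observed degradation.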

BRAF G469A = biological target: T3, BRAF G469A (Homo sapiens, UniProt P15056, G469A); experiment: BRAF HiBiT degradation assay, C-terminal HiBiT-tagged BRAF G469A overexpressed in HCT-116 BRAF−/− cells (clone 34), Nano-Glo HiBiT Lytic assay
T3 construct: Horizon Discovery (HCT-116 BRAF−/− cells); host or cells: HCT-116 BRAF−/− cells, clone 34, lentiviral transduction
Outline: as §1

BRAF D594G = biological target: T4, BRAF D594G (Homo sapiens, UniProt P15056, D594G); experiment: BRAF HiBiT degradation assay, C-terminal HiBiT-tagged BRAF D594G overexpressed in HCT-116 BRAF−/− cells (clone 63), Nano-Glo HiBiT Lytic assay
T4 construct: Horizon Discovery (HCT-116 BRAF−/− cells); host or cells: HCT-116 BRAF−/− cells, clone 63, lentiviral transduction
Outline: as §1

[1] = A375 (BRAF V600E, Class 1), DC50 at 50% degradation
[2] = A375 (BRAF V600E, Class 1), observed Dmax, % protein degraded relative to DMSO control
[3] = BRAF G466V (Class 3), HCT-116 BRAF−/− cells, DC50 at 50% degradation
[4] = BRAF G466V (Class 3), HCT-116 BRAF−/− cells, observed Dmax relative to DMSO control
[5] = BRAF G469A (Class 2), HCT-116 BRAF−/− cells, DC50 at 50% degradation
[6] = BRAF G469A (Class 2), HCT-116 BRAF−/− cells, observed Dmax relative to DMSO control
[7] = BRAF D594G (Class 3), HCT-116 BRAF−/− cells, DC50 at 50% degradation
[8] = BRAF D594G (Class 3), HCT-116 BRAF−/− cells, observed Dmax relative to DMSO control
[9] = A375 (BRAF V600E), DC50 at 50%: fitted conc. at Y=50
[10] = A375 (BRAF V600E), percentage protein degraded at maximal compound effect relative to DMSO
[11] = BRAF G466V, DC50 at 50%: fitted conc. at Y=50
[12] = HCT-116, BRAF G466V, percentage protein degraded at maximal compound effect relative to DMSO
[13] = Class 2, BRAF G469A, DC50 at 50%: fitted conc. at Y=50
[14] = HCT-116, Class 2, BRAF G469A, percentage protein degraded at maximal compound effect relative to DMSO
[15] = BRAF D594G, DC50 at 50%: fitted conc. at Y=50
[16] = HCT-116, BRAF D594G, percentage protein degraded at maximal compound effect relative to DMSO

T1 sequence (P15056 whole entry V600E, the tested form may be a part): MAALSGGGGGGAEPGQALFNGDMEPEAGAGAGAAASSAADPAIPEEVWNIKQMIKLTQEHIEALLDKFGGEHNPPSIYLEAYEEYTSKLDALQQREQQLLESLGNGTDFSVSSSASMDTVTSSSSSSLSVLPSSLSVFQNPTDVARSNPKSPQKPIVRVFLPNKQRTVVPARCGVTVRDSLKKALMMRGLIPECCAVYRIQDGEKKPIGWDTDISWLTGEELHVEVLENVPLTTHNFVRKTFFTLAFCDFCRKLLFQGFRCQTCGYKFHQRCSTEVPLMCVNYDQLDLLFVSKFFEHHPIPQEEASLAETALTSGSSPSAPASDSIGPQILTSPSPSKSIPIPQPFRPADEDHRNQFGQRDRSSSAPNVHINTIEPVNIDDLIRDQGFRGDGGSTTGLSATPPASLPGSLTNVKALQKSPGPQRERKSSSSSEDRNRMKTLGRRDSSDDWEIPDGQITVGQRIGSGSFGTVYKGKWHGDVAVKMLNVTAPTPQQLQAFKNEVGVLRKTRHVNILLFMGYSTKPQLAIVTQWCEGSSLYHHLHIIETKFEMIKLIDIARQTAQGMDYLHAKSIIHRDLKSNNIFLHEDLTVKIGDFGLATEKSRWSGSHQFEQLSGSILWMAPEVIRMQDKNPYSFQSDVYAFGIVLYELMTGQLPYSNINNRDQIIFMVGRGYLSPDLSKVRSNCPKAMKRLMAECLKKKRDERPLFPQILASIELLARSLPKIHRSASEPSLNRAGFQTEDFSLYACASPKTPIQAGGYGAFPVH
T2 sequence (P15056 whole entry G466V): as the sequence (P15056 whole entry V600E, the tested form may be a part) above, with G466V, E600V counted along it
T4 sequence (P15056 whole entry D594G): as the sequence (P15056 whole entry V600E, the tested form may be a part) above, with D594G, E600V counted along it
T3 sequence (P15056 whole entry G469A): as the sequence (P15056 whole entry V600E, the tested form may be a part) above, with G469A, E600V counted along it

Compound	DC50 (BRAF V600E; [1]) [nM]	Dmax (BRAF V600E; [2]) [%]	DC50 (BRAF G466V; [3]) [nM]	Dmax (BRAF G466V; [4]) [%]	DC50 (BRAF G469A; [5]) [nM]	Dmax (BRAF G469A; [6]) [%]	DC50 (BRAF D594G; [7]) [nM]	Dmax (BRAF D594G; [8]) [%]	DC50 (BRAF V600E; [9]) [nM]	Dmax (BRAF V600E; [10]) [%]	DC50 (BRAF G466V; [11]) [nM]	Dmax (BRAF G466V; [12]) [%]	DC50 (BRAF G469A; [13]) [nM]	Dmax (BRAF G469A; [14]) [%]	DC50 (BRAF D594G; [15]) [nM]	Dmax (BRAF D594G; [16]) [%]
CCC(C)S(=O)(=O)Nc1cc(Cl)cc(-c2cn(-c3ccc(N4CCN(CC5CCN(c6ccc(N7CCC(=O)NC7=O)cc6)CC5)CC4)cc3)nc2-c2ccncc2)c1F (racemic) [Compound 328, Rac-(2R)—N-[5-chloro-3-(1-{4-[4-({1-[4-(2,4-dioxo-1,3-diazinan-1-yl)phenyl]piperidin-4-yl}methyl)piperazin-1-yl]phenyl}-3-(pyridin-4-yl)-1H-pyrazol-4-yl)-2-fluorophenyl]butane-2-sulfonamide]	< 10	> 70	10 to 50	> 70	50 to 500	30 to 70	< 10	30 to 70								
CCCS(=O)(=O)Nc1cccc(-c2nc(C)sc2-c2ccnc(Nc3ccc(N4CCN(CC5CCN(c6ccc([C@@H]7CCC(=O)NC7=O)cc6)CC5)CC4)cn3)n2)c1F [Compound 61, N-[3-(5-{2-[(5-{4-[(1-{4-[(3S)-2,6-dioxopiperidin-3-yl]phenyl}piperidin-4-yl)methyl]piperazin-1-yl}pyridin-2-yl)amino]pyrimidin-4-yl}-2-methyl-1,3-thiazol-4-yl)-2-fluorophenyl]propane-1-sulfonamide]									< 10	> 70	> 500	30 to 70	< 10	30 to 70	> 500	30 to 70
CCCS(=O)(=O)Nc1cccc(-c2nc(C(C)(C)C)sc2-c2ccnc(Nc3cnn(CC4CCN(C(=O)[C@@H]5CCN(c6ccc(C7CCC(=O)NC7=O)cn6)C5)CC4)c3)n2)c1F (mixture of isomers) [Compound 114, N-{3-[2-tert-butyl-5-(2-{[1-({1-[(3R)-1-{5-[(3RS)-2,6-dioxopiperidin-3-yl]pyridin-2-yl}pyrrolidine-3-carbonyl]piperidin-4-yl}methyl)-1H-pyrazol-4-yl]amino}pyrimidin-4-yl)-1,3-thiazol-4-yl]-2-fluorophenyl}propane-1-sulfonamide]									10 to 50	> 70	> 500	< 30	> 500	< 30	> 500	30 to 70
CCN(C)S(=O)(=O)Nc1cccc(-c2nc(C(C)(C)C)sc2-c2ccnc(Nc3ccc(N4CCN(CC5CC6(C5)CN(c5ccc(C7CCC(=O)NC7=O)cn5)C6)CC4)cn3)n2)c1F (racemic) [Compound 30, Rac-(3R)-3-{6-[6-({4-[6-({4-[2-tert-butyl-4-(3-{[ethyl(methyl)sulfamoyl]amino}-2-fluorophenyl)-1,3-thiazol-5-yl]pyrimidin-2-yl}amino)pyridin-3-yl]piperazin-1-yl}methyl)-2-azaspiro[3.3]heptan-2-yl]pyridin-3-yl}piperidine-2,6-dione]									< 10	> 70	10 to 50	30 to 70	10 to 50	30 to 70	< 10	30 to 70
O=C1CC[C@H](c2ccc(N3CCC(CN4CCN(c5ccc(-n6cc(-c7cc(Cl)cc(NS(=O)(=O)N8CC(F)C8)c7F)c(-c7ccncc7)n6)c(F)c5)CC4)CC3)cc2)C(=O)N1 [Compound 338, N-{5-chloro-3-[1-(4-{4-[(1-{4-[(3R)-2,6-dioxopiperidin-3-yl]phenyl}piperidin-4-yl)methyl]piperazin-1-yl}-2-fluorophenyl)-3-(pyridin-4-yl)-1H-pyrazol-4-yl]-2-fluorophenyl}-3-fluoroazetidine-1-sulfonamide]	< 10	> 70	< 10	> 70	< 10	30 to 70	< 10	30 to 70								

Other lines, results leading:

DC50 (BRAF V600E; [1]) [nM]	Dmax (BRAF V600E; [2]) [%]	DC50 (BRAF G466V; [3]) [nM]	Dmax (BRAF G466V; [4]) [%]	DC50 (BRAF G469A; [5]) [nM]	Dmax (BRAF G469A; [6]) [%]	DC50 (BRAF D594G; [7]) [nM]	Dmax (BRAF D594G; [8]) [%]	DC50 (BRAF V600E; [9]) [nM]	Dmax (BRAF V600E; [10]) [%]	DC50 (BRAF G466V; [11]) [nM]	Dmax (BRAF G466V; [12]) [%]	DC50 (BRAF G469A; [13]) [nM]	Dmax (BRAF G469A; [14]) [%]	DC50 (BRAF D594G; [15]) [nM]	Dmax (BRAF D594G; [16]) [%]	Compound
< 10	> 70	10 to 50	> 70	10 to 50	> 70	< 10	> 70									O=C1CC[C@H](c2ccc(N3CCC(CN4CCN(c5ccc(-n6cc(-c7cc(Cl)cc(NS(=O)(=O)C8CCCC8)c7F)c(-c7ccncc7)n6)cc5)CC4)CC3)nc2)C(=O)N1 [Compound 372, N-{5-chloro-3-[1-(4-{4-[(1-{5-[(3R)-2,6-dioxopiperidin-3-yl]pyridin-2-yl}piperidin-4-yl)methyl]piperazin-1-yl}phenyl)-3-(pyridin-4-yl)-1H-pyrazol-4-yl]-2-fluorophenyl}cyclopentanesulfonamide]
< 10	> 70	< 10	> 70	10 to 50	> 70	< 10	> 70									O=C1CC[C@@H](c2ccc(N3CCC(CN4CCN(c5ccc(-n6cc(-c7cc(Cl)cc(NS(=O)(=O)N8CCCC8)c7F)c(-c7ccncc7)n6)nc5)CC4)CC3)nc2)C(=O)N1 [Compound 383, N-{5-chloro-3-[1-(5-{4-[(1-{5-[(3S)-2,6-dioxopiperidin-3-yl]pyridin-2-yl}piperidin-4-yl)methyl]piperazin-1-yl}pyridin-2-yl)-3-(pyridin-4-yl)-1H-pyrazol-4-yl]-2-fluorophenyl}pyrrolidine-1-sulfonamide]
< 10	> 70	< 10	> 70	< 10	> 70	< 10	> 70									O=C1CC[C@H](c2ccc(N3CCC(CN4CCN(c5ccc(-n6cc(-c7cc(C(F)F)cc(NS(=O)(=O)N8CCCC8)c7F)c(-c7ccncc7)n6)cc5)CC4)CC3)cc2)C(=O)N1 [Compound 349, N-[5-(difluoromethyl)-3-[1-(4-{4-[(1-{4-[(3R)-2,6-dioxopiperidin-3-yl]phenyl}piperidin-4-yl)methyl]piperazin-1-yl}phenyl)-3-(pyridin-4-yl)-1H-pyrazol-4-yl]-2-fluorophenyl]pyrrolidine-1-sulfonamide]
< 10	> 70	< 10	> 70	10 to 50	> 70	< 10	30 to 70									O=C1CCC(c2ccc(N3CCC(CN4CCN(c5ccc(-n6cc(-c7cc(C(F)F)cc(NS(=O)(=O)N8CCCC8)c7F)c(-c7ccncc7)n6)c(F)c5)CC4)CC3)nc2)C(=O)N1 (racemic) [Compound 357, Rac-N-[5-(difluoromethyl)-3-[1-(4-{4-[(1-{5-[(3R)-2,6-dioxopiperidin-3-yl]pyridin-2-yl}piperidin-4-yl)methyl]piperazin-1-yl}-2-fluorophenyl)-3-(pyridin-4-yl)-1H-pyrazol-4-yl]-2-fluorophenyl]pyrrolidine-1-sulfonamide]
< 10	> 70	< 10	> 70	10 to 50	> 70	< 10	> 70									O=C1CCC(c2ccc(N3CCC(CN4CCN(c5ccc(-n6cc(-c7cc(Cl)cc(NS(=O)(=O)C8CCCC8)c7F)c(-c7ccncc7)n6)cc5)CC4)CC3)nc2)C(=O)N1 (racemic) [Compound 373, Rac-N-{5-chloro-3-[1-(4-{4-[(1-{5-[(3R)-2,6-dioxopiperidin-3-yl]pyridin-2-yl}piperidin-4-yl)methyl]piperazin-1-yl}phenyl)-3-(pyridin-4-yl)-1H-pyrazol-4-yl]-2-fluorophenyl}cyclopentanesulfonamide]

From patent US20260317324A1, “BIFUNCTIONAL COMPOUNDS FOR DEGRADING BRAF VIA UBIQUITIN PROTEOSOME PATHWAY” (Nurix Therapeutics, Inc., priority 2023, published 2026)
